Source: US6451339B2, “Compositions and methods for improved delivery of hydrophobic agents” (Lipocine, Inc., priority 1999, dated 2002)
One block for each compound: values may come before it.

Key:
[1] = value reported by the manufacturer of the commercial product, a rough average, or inventors' judgment; cited from earlier work
[2] = Surfactant combinations giving clear aqueous dispersions (maximum hydrophobic surfactant, visual optical clarity); conditions: for maximum hydrophobic surfactant concentration giving a clear aqueous dispersion: Arlacel 186 - Cremophor RH-40 pair; for effect of added solubilizer on the relative amount of hydrophobic surfactant that can be used: Cremophor RH 40 hydrophilic surfactant, 20% solubilizer; for approximate maximum grams of hydrophobic surfactant per 100 g of hydrophilic surfactant giving acceptable optical clarity: 10× aqueous dispersion, no solubilizer
[3] = weight percent of solubilizer 0
[4] = weight percent of solubilizer 20
[5] = weight percent of solubilizer 50
[6] = hydrophilic surfactant Cremophor RH40 + 20% Ethanol
[7] = hydrophilic surfactant Cremophor RH40 + 20% Glycofurol
[8] = hydrophilic surfactant Cremophor RH40 + 20% PEG-400
[9] = hydrophilic surfactant Cremophor RH40 + 20% Triacetin
[10] = hydrophilic surfactant Cremophor RH40, solubilizer (None), reproduced from Table 19
[11] = hydrophilic surfactant PEG-8 Capric/Caprylic (Labrasol)
[12] = hydrophilic surfactant PEG-25 Glyceryl trioleate (Tagat TO)
[13] = hydrophilic surfactant PEG-35 Castor Oil (Incrocas 35)
[14] = hydrophilic surfactant PEG-40H Castor Oil (Cremophor RH-40)
[15] = hydrophilic surfactant PEG-60 Corn Oil (Crovol M-70)
[16] = hydrophilic surfactant Polysorbate 80 (Tween 80)
[17] = hydrophilic surfactant Polysorbate-20 (Tween 20)

Compound: CC(C)CCC[C@@H](C)[C@H]1CC[C@H]2[C@@H]3CC=C4C[C@@H](O)CC[C@]4(C)[C@H]3CC[C@]12C [Cholesterol]
HLB [1]: <10

maximum hydrophobic surfactant concentration giving a clear aqueous dispersion [2, 3]: 20 g per 100 g of hydrophilic sur
maximum hydrophobic surfactant concentration giving a clear aqueous dispersion [2, 4]: 25 g per 100 g of hydrophilic sur
maximum hydrophobic surfactant concentration giving a clear aqueous dispersion [2, 5]: 30 g per 100 g of hydrophilic sur
Compound: CCO [Ethanol]

Compound: CCCCC/C=C\C/C=C\CCCCCCCC(=O)OCC [Ethyl linoleate]
HLB [1]: <10

Compound: CCCCCCCC/C=C\CCCCCCCC(=O)OCC(O)CO (centres unmarked) [Glyceryl monooleate (C18:1), Glyceryl monooleate]
effect of added solubilizer on the relative amount of hydrophobic surfactant that can be used [2]: moderate
approximate maximum grams of hydrophobic surfactant per 100 g of hydrophilic surfactant giving a clear aqueous dispersion [2, 6]: 42 g per 100 g of hydrophilic sur
approximate maximum grams of hydrophobic surfactant per 100 g of hydrophilic surfactant giving a clear aqueous dispersion [2, 7]: 44 g per 100 g of hydrophilic sur
approximate maximum grams of hydrophobic surfactant per 100 g of hydrophilic surfactant giving a clear aqueous dispersion [2, 8]: 40 g per 100 g of hydrophilic sur
approximate maximum grams of hydrophobic surfactant per 100 g of hydrophilic surfactant giving a clear aqueous dispersion [2, 9]: 40 g per 100 g of hydrophilic sur
approximate maximum grams of hydrophobic surfactant per 100 g of hydrophilic surfactant giving a clear aqueous dispersion [2, 10]: 40 g per 100 g of hydrophilic sur
approximate maximum grams of hydrophobic surfactant per 100 g of hydrophilic surfactant giving acceptable optical clarity [2, 11]: 35 g per 100 g of hydrophilic sur
approximate maximum grams of hydrophobic surfactant per 100 g of hydrophilic surfactant giving acceptable optical clarity [2, 12]: 10 g per 100 g of hydrophilic sur
approximate maximum grams of hydrophobic surfactant per 100 g of hydrophilic surfactant giving acceptable optical clarity [2, 13]: 15 g per 100 g of hydrophilic sur
approximate maximum grams of hydrophobic surfactant per 100 g of hydrophilic surfactant giving acceptable optical clarity [2, 14]: 40 g per 100 g of hydrophilic sur
approximate maximum grams of hydrophobic surfactant per 100 g of hydrophilic surfactant giving acceptable optical clarity [2, 15]: 10 g per 100 g of hydrophilic sur
approximate maximum grams of hydrophobic surfactant per 100 g of hydrophilic surfactant giving acceptable optical clarity [2, 16]: 12 g per 100 g of hydrophilic sur
approximate maximum grams of hydrophobic surfactant per 100 g of hydrophilic surfactant giving acceptable optical clarity [2, 17]: 10 g per 100 g of hydrophilic sur

Compound: CC(C)=CCC[C@@H](C)[C@H]1CC[C@@]2(C)C3=C(CC[C@]12C)[C@@]1(C)CC[C@H](O)C(C)(C)[C@@H]1CC3 [Ianosterol]
HLB [1]: <10

Compound: CCCCC/C=C\C/C=C\CCCCCCCC(=O)OC(C)C [Isopropyl linoleate]
HLB [1]: <10

Compound: CCCCCCCCCCCCCC(=O)OC(C)C [Isopropyl myristate]
HLB [1]: <10

approximate maximum grams of hydrophobic surfactant per 100 g of hydrophilic surfactant giving acceptable optical clarity [2, 11]: 90 g per 100 g of hydrophilic sur
approximate maximum grams of hydrophobic surfactant per 100 g of hydrophilic surfactant giving acceptable optical clarity [2, 12]: 10 g per 100 g of hydrophilic sur
approximate maximum grams of hydrophobic surfactant per 100 g of hydrophilic surfactant giving acceptable optical clarity [2, 13]: 40 g per 100 g of hydrophilic sur
approximate maximum grams of hydrophobic surfactant per 100 g of hydrophilic surfactant giving acceptable optical clarity [2, 14]: 45 g per 100 g of hydrophilic sur
approximate maximum grams of hydrophobic surfactant per 100 g of hydrophilic surfactant giving acceptable optical clarity [2, 16]: 70 g per 100 g of hydrophilic sur
approximate maximum grams of hydrophobic surfactant per 100 g of hydrophilic surfactant giving acceptable optical clarity [2, 17]: 95 g per 100 g of hydrophilic sur
Compound: CCCCCCCCCCCCOCCOCCOCCOCCO [PEG-4 lauryl ether]

Compound: CCCCCCCCCCCCCCCCCC(=O)OCC(CO)(CO)COC(=O)CCCCCCCCCCCCCCCCC [Pentaerythrityl distearate]
HLB [1]: >10

Compound: CCCCCCCC/C=C\CCCCCCCC(=O)OCC(COC(=O)CCCCCCC/C=C\CCCCCCCC)(COC(=O)CCCCCCC/C=C\CCCCCCCC)COC(=O)CCCCCCC/C=C\CCCCCCCC [Pentaerythrityl tetraoleate]
HLB [1]: >10

maximum hydrophobic surfactant concentration giving a clear aqueous dispersion [2, 3]: 20 g per 100 g of hydrophilic sur
maximum hydrophobic surfactant concentration giving a clear aqueous dispersion [2, 4]: 28 g per 100 g of hydrophilic sur
maximum hydrophobic surfactant concentration giving a clear aqueous dispersion [2, 5]: 30 g per 100 g of hydrophilic sur
Compound: CC(O)CO (centres unmarked) [Propylene Glycol]

Compound: CCCCCCCCCC(=O)OCC(C)OC(=O)CCCCCCCCC (centres unmarked) [Propylene glycol dicaprate]
HLB [1]: >6

maximum hydrophobic surfactant concentration giving a clear aqueous dispersion [2, 3]: 20 g per 100 g of hydrophilic sur
maximum hydrophobic surfactant concentration giving a clear aqueous dispersion [2, 4]: 28 g per 100 g of hydrophilic sur
maximum hydrophobic surfactant concentration giving a clear aqueous dispersion [2, 5]: 25 g per 100 g of hydrophilic sur
Compound: CC(=O)OCC(COC(C)=O)OC(C)=O [Triacetin]

approximate maximum grams of hydrophobic surfactant per 100 g of hydrophilic surfactant giving acceptable optical clarity [2, 11]: 25 g per 100 g of hydrophilic sur
approximate maximum grams of hydrophobic surfactant per 100 g of hydrophilic surfactant giving acceptable optical clarity [2, 12]: 10 g per 100 g of hydrophilic sur
approximate maximum grams of hydrophobic surfactant per 100 g of hydrophilic surfactant giving acceptable optical clarity [2, 14]: 10 g per 100 g of hydrophilic sur
approximate maximum grams of hydrophobic surfactant per 100 g of hydrophilic surfactant giving acceptable optical clarity [2, 15]: 10 g per 100 g of hydrophilic sur
Compound: Glyceryl mono-, dioleate

approximate maximum grams of hydrophobic surfactant per 100 g of hydrophilic surfactant giving acceptable optical clarity [2, 11]: 25 g per 100 g of hydrophilic sur
approximate maximum grams of hydrophobic surfactant per 100 g of hydrophilic surfactant giving acceptable optical clarity [2, 12]: 10 g per 100 g of hydrophilic sur
approximate maximum grams of hydrophobic surfactant per 100 g of hydrophilic surfactant giving acceptable optical clarity [2, 13]: 20 g per 100 g of hydrophilic sur
approximate maximum grams of hydrophobic surfactant per 100 g of hydrophilic surfactant giving acceptable optical clarity [2, 14]: 30 g per 100 g of hydrophilic sur
approximate maximum grams of hydrophobic surfactant per 100 g of hydrophilic surfactant giving acceptable optical clarity [2, 15]: 20 g per 100 g of hydrophilic sur
approximate maximum grams of hydrophobic surfactant per 100 g of hydrophilic surfactant giving acceptable optical clarity [2, 16]: 20 g per 100 g of hydrophilic sur
approximate maximum grams of hydrophobic surfactant per 100 g of hydrophilic surfactant giving acceptable optical clarity [2, 17]: 25 g per 100 g of hydrophilic sur
Compound: PEG-3 oleyl ether

approximate maximum grams of hydrophobic surfactant (Arlacel 186) per 100 g of hydrophilic surfactant giving a clear aqueous dispersion ([2]; hydrophobic surfactant Arlacel 186 + 20% Ethanol): 25 g per 100 g of hydrophilic sur
approximate maximum grams of hydrophobic surfactant (Arlacel 186) per 100 g of hydrophilic surfactant giving a clear aqueous dispersion ([2]; hydrophobic surfactant Arlacel 186 + 20% Triacetin): 25 g per 100 g of hydrophilic sur
approximate maximum grams of hydrophobic surfactant (Arlacel 186) per 100 g of hydrophilic surfactant giving a clear aqueous dispersion ([2]; hydrophobic surfactant Arlacel 186, solubilizer (None), from Table 19): 20 g per 100 g of hydrophilic sur
Compound: PEG-20 sorbitan monolaurate

maximum hydrophobic surfactant concentration giving a clear aqueous dispersion [2, 3]: 20 g per 100 g of hydrophilic sur
maximum hydrophobic surfactant concentration giving a clear aqueous dispersion [2, 4]: 25 g per 100 g of hydrophilic sur
maximum hydrophobic surfactant concentration giving a clear aqueous dispersion [2, 5]: 25 g per 100 g of hydrophilic sur
Compound: PEG-400

approximate maximum grams of hydrophobic surfactant per 100 g of hydrophilic surfactant giving acceptable optical clarity [2, 11]: 35 g per 100 g of hydrophilic sur
approximate maximum grams of hydrophobic surfactant per 100 g of hydrophilic surfactant giving acceptable optical clarity [2, 12]: 10 g per 100 g of hydrophilic sur
approximate maximum grams of hydrophobic surfactant per 100 g of hydrophilic surfactant giving acceptable optical clarity [2, 13]: 10 g per 100 g of hydrophilic sur
approximate maximum grams of hydrophobic surfactant per 100 g of hydrophilic surfactant giving acceptable optical clarity [2, 14]: 5 g per 100 g of hydrophilic sur
approximate maximum grams of hydrophobic surfactant per 100 g of hydrophilic surfactant giving acceptable optical clarity [2, 15]: 10 g per 100 g of hydrophilic sur
approximate maximum grams of hydrophobic surfactant per 100 g of hydrophilic surfactant giving acceptable optical clarity [2, 16]: 10 g per 100 g of hydrophilic sur
approximate maximum grams of hydrophobic surfactant per 100 g of hydrophilic surfactant giving acceptable optical clarity [2, 17]: 35 g per 100 g of hydrophilic sur
Compound: Polyglyceryl-6 dioleate

approximate maximum grams of hydrophobic surfactant per 100 g of hydrophilic surfactant giving a clear aqueous dispersion [2, 7]: 65 g per 100 g of hydrophilic sur
approximate maximum grams of hydrophobic surfactant per 100 g of hydrophilic surfactant giving a clear aqueous dispersion [2, 9]: 65 g per 100 g of hydrophilic sur
approximate maximum grams of hydrophobic surfactant per 100 g of hydrophilic surfactant giving a clear aqueous dispersion [2, 10]: 20 g per 100 g of hydrophilic sur
approximate maximum grams of hydrophobic surfactant per 100 g of hydrophilic surfactant giving acceptable optical clarity [2, 11]: 30 g per 100 g of hydrophilic sur
approximate maximum grams of hydrophobic surfactant per 100 g of hydrophilic surfactant giving acceptable optical clarity [2, 12]: 10 g per 100 g of hydrophilic sur
approximate maximum grams of hydrophobic surfactant per 100 g of hydrophilic surfactant giving acceptable optical clarity [2, 13]: 30 g per 100 g of hydrophilic sur
approximate maximum grams of hydrophobic surfactant per 100 g of hydrophilic surfactant giving acceptable optical clarity [2, 14]: 20 g per 100 g of hydrophilic sur
approximate maximum grams of hydrophobic surfactant per 100 g of hydrophilic surfactant giving acceptable optical clarity [2, 15]: 15 g per 100 g of hydrophilic sur
approximate maximum grams of hydrophobic surfactant per 100 g of hydrophilic surfactant giving acceptable optical clarity [2, 16]: 10 g per 100 g of hydrophilic sur
approximate maximum grams of hydrophobic surfactant per 100 g of hydrophilic surfactant giving acceptable optical clarity [2, 17]: 20 g per 100 g of hydrophilic sur
Compound: Sorbitan monolaurate

Compound: Sorbitan monooleate
effect of added solubilizer on the relative amount of hydrophobic surfactant that can be used [2]: decreases
approximate maximum grams of hydrophobic surfactant per 100 g of hydrophilic surfactant giving a clear aqueous dispersion [2, 6]: 40 g per 100 g of hydrophilic sur
approximate maximum grams of hydrophobic surfactant per 100 g of hydrophilic surfactant giving a clear aqueous dispersion [2, 7]: 30 g per 100 g of hydrophilic sur
approximate maximum grams of hydrophobic surfactant per 100 g of hydrophilic surfactant giving a clear aqueous dispersion [2, 8]: 25 g per 100 g of hydrophilic sur
approximate maximum grams of hydrophobic surfactant per 100 g of hydrophilic surfactant giving a clear aqueous dispersion [2, 9]: 40 g per 100 g of hydrophilic sur
approximate maximum grams of hydrophobic surfactant per 100 g of hydrophilic surfactant giving a clear aqueous dispersion [2, 10]: 65 g per 100 g of hydrophilic sur
approximate maximum grams of hydrophobic surfactant per 100 g of hydrophilic surfactant giving acceptable optical clarity [2, 11]: 15 g per 100 g of hydrophilic sur
approximate maximum grams of hydrophobic surfactant per 100 g of hydrophilic surfactant giving acceptable optical clarity [2, 12]: 10 g per 100 g of hydrophilic sur
approximate maximum grams of hydrophobic surfactant per 100 g of hydrophilic surfactant giving acceptable optical clarity [2, 13]: 25 g per 100 g of hydrophilic sur
approximate maximum grams of hydrophobic surfactant per 100 g of hydrophilic surfactant giving acceptable optical clarity [2, 14]: 65 g per 100 g of hydrophilic sur
approximate maximum grams of hydrophobic surfactant per 100 g of hydrophilic surfactant giving acceptable optical clarity [2, 15]: 20 g per 100 g of hydrophilic sur
approximate maximum grams of hydrophobic surfactant per 100 g of hydrophilic surfactant giving acceptable optical clarity [2, 16]: 5 g per 100 g of hydrophilic sur
approximate maximum grams of hydrophobic surfactant per 100 g of hydrophilic surfactant giving acceptable optical clarity [2, 17]: 5 g per 100 g of hydrophilic sur

Compound: tetrahydrofurfuryl alcohol PEG ether [Glycofurol]
maximum hydrophobic surfactant concentration giving a clear aqueous dispersion [2, 3]: 20 g per 100 g of hydrophilic sur
maximum hydrophobic surfactant concentration giving a clear aqueous dispersion [2, 4]: 25 g per 100 g of hydrophilic sur
maximum hydrophobic surfactant concentration giving a clear aqueous dispersion [2, 5]: 30 g per 100 g of hydrophilic sur
